Data: PubChem BioAssay AID1259408 (Genetic Toxicology Data Bank (GENE-TOX), 2018)
Active and inactive are the calls of the source. The rule behind the calls is not given here.

Test system: GENE-TOX genotoxicity assays, various organisms and cells
Assay: GENE-TOX mutagenicity studies
[1] = Species/Cell Type: Drosophila melanogaster, Assay Type: Sex-linked recessive lethal gene mutation, Assay Code: SRL+, Evaluation Type: Evaluation A (Pre-1980)
[2] = Species/Cell Type: Saccharomyces cerevisiae, Assay Type: Mitotic recombination or gene conversion, Assay Code: YEC+, Evaluation Type: Evaluation A (Pre-1980)
[3] = Species/Cell Type: Salmonella typhimurium (one or more of the five standard strains: TA98, TA100, TA1535, TA1537, and TA1538), Assay Type: Histidine reverse gene mutation, Ames assay, Assay Code: SALT, Evaluation Type: Evaluation A (Pre-1980)
[4] = Species/Cell Type: Salmonella typhimurium (one or more of the five standard strains: TA98, TA100, TA1535, TA1537, and TA1538), Assay Type: Histidine reverse gene mutation, Ames assay, Assay Code: SAL+*, Activation: With metabolic activation, Evaluation Type: Evaluation A (Pre-1980)
[5] = Species/Cell Type: Bacillus subtilis (H17 vs M45), Assay Type: Rec-assay, spot test, DNA effects (bacterial DNA repair), Assay Code: REW+, Evaluation Type: Evaluation A (Pre-1980)
[6] = Species/Cell Type: Salmonella typhimurium (one or more of the five standard strains: TA98, TA100, TA1535, TA1537, and TA1538), Assay Type: Histidine reverse gene mutation, Ames assay, Assay Code: SAL+, Evaluation Type: Evaluation A (Pre-1980)
[7] = Species/Cell Type: Saccharomyces cerevisiae, Assay Type: Mitotic recombination or gene conversion, Assay Code: YEH-, Evaluation Type: Evaluation A (Pre-1980)

`CN(C)N=Nc1c(Br)cc(Br)cc1Br` was tested, and the mutagenic call [1] was “active; positive” and the mutagenic call [2] was “active; positive”.

With `CC1(C)N=C(N)N=C(N)N1OCCCOc1cc(Cl)c(Cl)cc1Cl` the mutagenic call [3] was “no conclusion”.

`O=C1CCc2ccc3c(ccc4ccccc43)c21` was tested, and the mutagenic call [4] was “active; positive”.

`CN=C=O` was tested, and the mutagenic call (Species/Cell Type: Mammalian polychromatic erythrocytes, Assay Type: Micronucleus test, chromosome aberrations, Assay Code: MNT+U, Dose Response: Unconfirmed positive response, Evaluation Type: Evaluation B (Post-1980)) was “active; positive”.

`O[C@H]1[C@H](O)[C@@H](O)c2c(cc3ccc4cccc5ccc2c3c45)[C@@H]1O` was tested, and the mutagenic call (Species/Cell Type: Chinese hamster lung (V79) cells, Assay Type: Forward gene mutation at the HPRT or ouabain locus, Assay Code: V79-*, Activation: With metabolic activation, Evaluation Type: Evaluation A (Pre-1980)) was “inactive; negative”.

In the case of `CC(=O)OC1C2OC2C2=CC(O)C3(CC2(C)C1C)OC3(C)CO` (configuration not stated), the mutagenic call (Species/Cell Type: Saccharomyces cerevisiae, Assay Type: Mitotic recombination or gene conversion, Assay Code: YEC-, Evaluation Type: Evaluation A (Pre-1980)) is reported as “inactive; negative”.

For `CCCN(N=O)C(N)=O`, the mutagenic call (Species/Cell Type: Human diploid fibroblasts, Assay Type: Unscheduled DNA synthesis (UDS) in vitro, DNA effects, Assay Code: UDH-, Evaluation Type: Evaluation A (Pre-1980)) was “inactive; negative”, the call (Species/Cell Type: Nonhuman, Assay Type: In vivo carcinogenicity studies, Assay Code: CCG+L, Evaluation Type: Evaluation A (Pre-1980)) was “active; positive” and the mutagenic call [2] was “active; positive”.

With `Cc1cc(C)cc(OC(=O)N(C)N=O)c1` the mutagenic call (Species/Cell Type: Bacillus subtilis (H17 vs M45T), Assay Type: Rec-assay, spot test, DNA effects (bacterial DNA repair), Assay Code: REX+, Evaluation Type: Evaluation A (Pre-1980)) was “active; positive” and the mutagenic call (Species/Cell Type: Escherichia coli WP2, Assay Type: Tryptophan reverse gene mutation, Assay Code: WP2+, Evaluation Type: Evaluation A (Pre-1980)) was “active; positive”.

`CC(C(=O)O)c1ccc(C(=O)c2ccccc2)s1` (configuration not stated) was tested, and the mutagenic call (Species/Cell Type: Human lymphocytes, Assay Type: Sister-chromatid exchange (SCE) in vivo, Assay Code: SCY+, Evaluation Type: Evaluation B (Post-1980)) was “active; positive”.

`[Cl][Sb]([Cl])([Cl])([Cl])[Cl]` was tested, and the mutagenic call [5] was “active; positive”.

`CCOP(=O)(OCC)SCCSCC` (tested in a mixture with another compound) was tested, and the mutagenic call [5] was “active; positive”, the mutagenic call (Species/Cell Type: Drosophila melanogaster, Assay Type: Sex-linked recessive lethal gene mutation, Assay Code: SRL-, Evaluation Type: Evaluation A (Pre-1980)) was “inactive; negative” and the mutagenic call (Species/Cell Type: Escherichia coli WP2 UVRA, Assay Type: Tryptophan reverse gene mutation, Assay Code: WPU+D, Dose Response: With dose response, Evaluation Type: Evaluation A (Pre-1980)) was “active; positive”. For the same compound, the mutagenic call (Species/Cell Type: Escherichia coli polA (W3119 vs P3478), Assay Type: Rec-assay, DNA effects (bacterial DNA repair), Assay Code: RE1-, Evaluation Type: Evaluation A (Pre-1980)) was “inactive; negative”, the mutagenic call (Species/Cell Type: Nonhuman, Assay Type: Sister-chromatid exchange (SCE) in vitro, Assay Code: SC2+D*, Activation: With metabolic activation, Dose Response: With dose response, Evaluation Type: Evaluation B (Post-1980)) was “active; positive” and the mutagenic call (Species/Cell Type: Saccharomyces cerevisiae, Assay Type: Mitotic recombination or gene conversion, Assay Code: YEH+, Evaluation Type: Evaluation A (Pre-1980)) was “active; positive”. The mutagenic call [6] was “active; positive”.

For `CC1=C[C@H]2[C@@]3(O)[C@H](C)[C@@H](O)[C@]4(O)[C@H]([C@@H]3C=C(CO)C[C@]2(O)C1=O)C4(C)C`, the mutagenic call (Species/Cell Type: Escherichia coli polA (W3119 vs P3478), Assay Type: Rec-assay, DNA effects (bacterial DNA repair), Assay Code: RE1T, Evaluation Type: Evaluation A (Pre-1980)) was “no conclusion” and the mutagenic call [7] was “inactive; negative”.

`CC(=O)OC[C@]12CCC(C)=C[C@H]1O[C@@H]1[C@H](O)[C@@H](OC(C)=O)[C@@]2(C)[C@]12CO2` was tested, and the mutagenic call [7] was “inactive; negative” and the mutagenic call [3] was “no conclusion”.

For `[Cl][Pt]([Cl])([Cl])[Cl]`, the mutagenic call [5] was “active; positive” and the mutagenic call [1] was “active; positive”.

`O=[N+]([O-])c1ccc2ccc3cc4ccccc4c4ccc1c2c34` was tested, and the mutagenic call (Species/Cell Type: Chinese hamster ovary (CHO) cells, Assay Type: Forward gene mutation at the HPRT locus, Assay Code: CHO+*, Activation: With metabolic activation, Evaluation Type: Evaluation B (Post-1980)) was “active; positive”.

For `COc1ccc(/C=N/NC(=O)c2ccncc2)c(C(=O)O)c1OC`, the mutagenic call (Species/Cell Type: Salmonella typhimurium, Assay Type: Forward and reverse gene mutation, host-mediated assay, Assay Code: HMA-, Evaluation Type: Evaluation A (Pre-1980)) was “inactive; negative”.

In the case of `Clc1ccc(C(c2ccccc2Cl)C(Cl)(Cl)Cl)cc1` (configuration not stated), the mutagenic call (Species/Cell Type: Nonhuman, Assay Type: Chromosome aberrations in vitro, Assay Code: CY&+, Evaluation Type: Evaluation A (Pre-1980)) is reported as “active; positive”.

For `Cc1cc(C)c(C)c(OC(=O)N(C)N=O)c1`, the mutagenic call [6] was “active; positive”.

With `O=c1cc(CO)occ1O` the mutagenic call [4] was “active; positive”.
